Data from the NIST ThermoML archive (doi:10.1021/je060271a).

Settings: 283.15 K, Liquid, Vibrating tube method

CCCCCC(=O)OCC(COC(=O)CCCCC)(COC(=O)CCCCC)COC(=O)CCCCC [pentaerythritol tetrahexanoate]
Settings | mass density [kg/m3]
4636.7 kPa | 1006.7
4649 kPa | 1006.8
4658.7 kPa | 1006.9
4668 kPa | 1006.9
4676.2 kPa | 1006.8
4685.2 kPa | 1006.8
4692.6 kPa | 1006.9
4700 kPa | 1006.9
4708.4 kPa | 1006.8
4714.4 kPa | 1006.8
4721.3 kPa | 1006.9
4726.5 kPa | 1006.8
4731.5 kPa | 1006.9
4736.6 kPa | 1006.9
4742.6 kPa | 1006.9
4748 kPa | 1006.9
4753 kPa | 1006.9
4759.1 kPa | 1006.9
4776 kPa | 1006.9
4786.1 kPa | 1007
4792.3 kPa | 1006.9
4802.7 kPa | 1006.8
4808.2 kPa | 1006.8
4814.3 kPa | 1006.9
4819.8 kPa | 1006.9
4825.4 kPa | 1007
4830.4 kPa | 1007
4835.6 kPa | 1007
4841.6 kPa | 1006.9
4847.2 kPa | 1007
4852.3 kPa | 1006.9
4858.9 kPa | 1007
4864.1 kPa | 1007
4869.3 kPa | 1007
4874.5 kPa | 1007
4881.1 kPa | 1007
4886.6 kPa | 1006.9
4892 kPa | 1006.9
4898.2 kPa | 1006.9
4903.6 kPa | 1007
4909.8 kPa | 1007
4915.2 kPa | 1007
4920.5 kPa | 1006.9
4926.4 kPa | 1007.1
4932 kPa | 1006.8
4938.5 kPa | 1006.9
4943.9 kPa | 1007
4949.3 kPa | 1007
4955.8 kPa | 1007
4961.4 kPa | 1007
4966.9 kPa | 1007
4972.8 kPa | 1007
4978 kPa | 1007
4984.9 kPa | 1007
4990.4 kPa | 1007.2
4996.2 kPa | 1007
5002.7 kPa | 1007.2
5008.1 kPa | 1007
5013.8 kPa | 1007.1
5020.4 kPa | 1007
5026.1 kPa | 1007
5031.5 kPa | 1007.1
5037.2 kPa | 1007
5044.1 kPa | 1007.2
5049.5 kPa | 1007.1
5055.5 kPa | 1007
5060.9 kPa | 1007.1
5067.8 kPa | 1007
5073.5 kPa | 1007.2
5079.2 kPa | 1007.1
5085.4 kPa | 1007.1
5091.5 kPa | 1007.1
5098.2 kPa | 1007
5103.9 kPa | 1007.1
5109.8 kPa | 1007
5115.5 kPa | 1007.1
5122.3 kPa | 1007
5128.3 kPa | 1007.1
5133.9 kPa | 1007.2
5138.7 kPa | 1007.1
5147 kPa | 1007.2
5152.5 kPa | 1007
5158.3 kPa | 1007.2
5164.7 kPa | 1007.2
5169.6 kPa | 1007.1
5176.9 kPa | 1007
5183.3 kPa | 1007.2
5189 kPa | 1007.1
5194.8 kPa | 1007.2
5201.6 kPa | 1007.1
5207.6 kPa | 1007
5212.7 kPa | 1007.2
5218.4 kPa | 1007.2
5227 kPa | 1007.3
5232.6 kPa | 1007.1
5237.2 kPa | 1007.1
5244.5 kPa | 1007.2
5250.5 kPa | 1007.1
5256.8 kPa | 1007.2
5263.7 kPa | 1007.2
5270.8 kPa | 1007.3
5276.8 kPa | 1007.2
5282.7 kPa | 1007.3
5290.2 kPa | 1007.4
5296 kPa | 1007.1
5302.1 kPa | 1007.3
5453.3 kPa | 1007.3
5459.7 kPa | 1007.3
5467.3 kPa | 1007.4
5473.7 kPa | 1007.4
5479.9 kPa | 1007.2
5486.3 kPa | 1007.3
5494.3 kPa | 1007.3
5501 kPa | 1007.3
5507.2 kPa | 1007.4
5514 kPa | 1007.4
5528.5 kPa | 1007.4
5534.4 kPa | 1007.4
5540.6 kPa | 1007.4
5548.4 kPa | 1007.4
5555 kPa | 1007.4
5561.9 kPa | 1007.3
5569.7 kPa | 1007.4
5575.9 kPa | 1007.4
5582.8 kPa | 1007.5
5589.4 kPa | 1007.4
5597.4 kPa | 1007.3
5604.1 kPa | 1007.5
5610.3 kPa | 1007.4
5618.3 kPa | 1007.4
5625 kPa | 1007.4
5631.6 kPa | 1007.4
5639.6 kPa | 1007.4
5646.1 kPa | 1007.5
5652.9 kPa | 1007.4
5661 kPa | 1007.5
5667.7 kPa | 1007.5
5674.8 kPa | 1007.3
5681.2 kPa | 1007.4
5687.9 kPa | 1007.4
5696.2 kPa | 1007.5
5703 kPa | 1007.4
5709.5 kPa | 1007.5
5716.6 kPa | 1007.5
5724.4 kPa | 1007.5
